Results published in patent US20060134102A1, “Lymphotoxin beta receptor agents in combination with chemotherapeutic agents” (Biogen Idec MA Inc., priority 2002, published 2006).
Where “and” joins values, the source holds several entries; their conditions need not be identical. Equal entries are not always repeated.

System: WiDr human colorectal adenocarcinoma
Assay: WiDr xenograft model: growth of established WiDr human colorectal tumors in athymic nude mice (tumor volume/weight, % T/C, Fa, Combination Index)
Details: for Volume Decrease: vs control; for Fractional Inhibition of Tumor Volume (Fa), Ave. / Tumor Volume, Ave.: group average
[1] = Day 34, individual animals, hCBE 50
[2] = Day 34, individual animals, hCBE 500
[3] = hCBE 50 μg, day 28, one line per animal
[4] = hCBE 100 μg, day 28, one line per animal
[5] = huCBE11 50 μg, day 21, listed as hCBE
[6] = Gem 12.5 mg/kg, day 28, one line per animal, listed as Gem
[7] = Gem 25 mg/kg, day 28, one line per animal, listed as Gem
[8] = Gem 50 mg/kg, day 28, one line per animal, listed as Gem

Description: Therapeutic agents, i.e. LTβR agonist and chemotherapeutic agents, were administered to athymic nude mice who had been implanted with WiDr tumor cells.
WiDr cells were obtained from the American Type Culture Collection (Manassas, Va.). Cells were grown in vitro in 90% Eagle's Minimum Essential Medium with 2 mM L-glutamine and Earle's Balanced Salt Solution (BSS) adjusted to contain 1.5 g/L sodium bicarbonate, 0.1 mM non-essential amino acids, and 1 mM sodium pyruvate plus 10% fetal bovine serum (FBS) without antibiotics (5% CO2). Bacterial cultures were performed on aliquots of the tumor homogenate preparation that was implanted into the mice to ensure that all cultures were negative for bacterial contamination at both 24 and 48 hours post implant.
When the tumors measured approximately 5 mm in length by 5 mm in width, mice were randomized to treatment and control groups. Body weight measurements were recorded twice-weekly beginning on Day 0.
Tumor measurements were determined using Vernier calipers. Tumor size measurements were recorded regularly according to the study, until the termination of the study. The formula to calculate volume for a prolate ellipsoid was used to estimate tumor volume (mm^3) from 2-dimensional tumor measurements: tumor volume (mm^3)=(length×width^2 [L×W^2])÷2. Assuming unit density, volume was converted to weight (i.e., 1 mm^3=1 mg). Tumor growth inhibition was assessed as % T/C, where T is the mean tumor weight of the treatment group and C is the mean tumor weight of the control group. […] Animals were sacrificed accordingly.
Statistical analysis of the tumor weight measurements was performed according to standard statistical methods. Mean, standard deviation (SD), and standard error of the mean (SEM) were determined for body weight and tumor weight for all dose groups at all assessments.
Antitumor efficacy was determined by comparing each treatment group's tumor volume with the control group's tumor volume. Mean tumor volume decrease was calculated as the difference between the control group and the treatment group mean tumor volume. The fractional inhibition of tumor volume, i.e., the fraction affected (Fa), was calculated by dividing the treatment group mean tumor volume decrease by the control group mean tumor volume. […] Further statistical analysis was performed accordingly.

huCBE11: humanized anti-LT-β-R agonist antibody (LTβ receptor-activating mAb), described in WO 02/30986
Fa (Fraction Affected) (Day 34, huCBE11 5 ug): 0.256
Tumor Volume (Day 34, huCBE11 5 ug): 1024.0
Volume Decrease (Day 34, huCBE11 5 ug): 352.4
Fa (Fraction Affected) (Day 34, huCBE11 50 ug): 0.361
Tumor Volume (Day 34, huCBE11 50 ug): 880.1
Volume Decrease (Day 34, huCBE11 50 ug): 496.3
Fa (Fraction Affected) (Day 34, huCBE11 500 ug): 0.466
Tumor Volume (Day 34, huCBE11 500 ug): 735.6
Volume Decrease (Day 34, huCBE11 500 ug): 640.8
Median Effect Dose (Day 34, huCBE11 Given Separately): 932.9 µg
Median Effect Dose (Day 34, huCBE11 dose, Combined (0.333:1) with Taxol): 19.8 µg
Individual Fractional Inhibition of Tumor Volume [1]: 0.039 and 0.536 and 0.420 and 0.452 and 0.391 and 0.290 and 0.423 and 0.674 and −0.234 and 0.614
Individual Tumor Volumes [1]: 1322.2 and 638.5 and 798.8 and 754.3 and 838.2 and 976.8 and 794.0 and 448.6 and 1698.4 and 531.6
Individual Fractional Inhibition of Tumor Volume [2]: 0.174 and 0.360 and 0.502 and 0.529 and 0.688 and 0.717 and 0.395 and 0.607 and 0.230 and 0.454
Individual Tumor Volumes [2]: 1136.7 and 881.2 and 685.7 and 648.1 and 430.1 and 389.8 and 832.1 and 541.3 and 1059.8 and 751.2
Tumor weight vs vehicle control (all huCBE11 groups (500, 100, 50 μg), day 42): statistically significantly lower
Fractional Inhibition of Tumor Volume (Fa), Ave. (hCBE 50 μg, day 28): 0.442
Tumor Volume, Ave. (hCBE 50 μg, day 28): 448.0
Individual Fractional Inhibition of Tumor Volume (Fa) [3]: 0.467 and 0.547 and 0.564 and 0.463 and 0.456 and 0.350 and −0.060 and 0.245 and 0.827 and 0.562
Individual Tumor Volumes [3]: 428.2 and 363.5 and 350.4 and 431.3 and 437.1 and 521.8 and 851.1 and 606.1 and 138.7 and 352.2
Fractional Inhibition of Tumor Volume (Fa), Ave. (hCBE 100 μg, day 28): 0.519
Tumor Volume, Ave. (hCBE 100 μg, day 28): 386.1
Individual Fractional Inhibition of Tumor Volume (Fa) [4]: 0.754 and −0.210 and 0.441 and 0.590 and 0.596 and 0.449 and 0.682 and 0.556 and 0.723 and 0.614
Individual Tumor Volumes [4]: 197.9 and 972.2 and 449.1 and 329.2 and 324.7 and 442.5 and 255.6 and 356.8 and 222.4 and 310.4
Fa (Fraction Affected), group mean (huCBE11 5 μg, day 21): 0.265
Tumor Volume, group mean (huCBE11 5 μg, day 21): 319.0
Volume Decrease vs control, group mean (huCBE11 5 μg, day 21): 115.0
Fa (huCBE11 5 μg, day 28): 0.143
Tumor Volume (huCBE11 5 μg, day 28): 688.4
Volume Decrease (huCBE11 5 μg, day 28): 114.8
Inhibition of tumor growth (huCBE11 5 μg, gemcitabine parallel study): did not significantly inhibit tumor growth
Fraction Affected (huCBE11 50 μg given separately, day 28): 0.442
% T/C (huCBE11 50 μg, Day 41): 43.5%
Fa (Fraction Affected), group mean (huCBE11 50 μg, day 21): 0.383
Tumor Volume, group mean (huCBE11 50 μg, day 21): 267.8
Volume Decrease vs control, group mean (huCBE11 50 μg, day 21): 166.2
Fa, individual animals [5]: 0.607 and 0.437 and 0.466 and 0.590 and 0.298 and 0.605 and 0.179 and −0.015 and 0.415 and 0.247
Tumor volume, individual animals [5]: 170.5 and 244.3 and 231.8 and 178.1 and 304.5 and 171.3 and 356.5 and 440.3 and 254.0 and 326.6
Tumor Volume (huCBE11 50 μg, day 28): 448.0
Volume Decrease (huCBE11 50 μg, day 28): 355.2
Fa (fractional inhibition of tumor volume), group mean (huCBE11 50 μg, day 35): 0.437
Fa, individual animals (huCBE11 50 μg, day 35): 0.723 and 0.666 and 0.660 and 0.636 and 0.318 and −0.502 and 0.321 and 0.473 and 0.743 and 0.329
Tumor Volume, group mean (huCBE11 50 μg, day 35): 633.2
Tumor volume, individual animals (huCBE11 50 μg, day 35): 311.9 and 375.4 and 381.9 and 409.6 and 766.4 and 1688.6 and 762.8 and 592.2 and 289.2 and 754.4
Volume Decrease vs control, group mean (huCBE11 50 μg, day 35): 490.8
Fa (fractional inhibition of tumor volume), group mean (huCBE11 50 μg, day 44): 0.387
Fa, individual animals (huCBE11 50 μg, day 44): 0.656 and 0.434 and 0.559 and 0.498 and 0.143 and 0.591 and −0.316 and 0.381 and 0.406 and 0.516
Tumor Volume, group mean (huCBE11 50 μg, day 44): 869.7
Tumor volume, individual animals (huCBE11 50 μg, day 44): 487.5 and 802.7 and 624.9 and 712.0 and 1216.2 and 580.7 and 1866.3 and 878.7 and 842.6 and 686.0
Volume Decrease vs control, group mean (huCBE11 50 μg, day 44): 548.9
Fraction Affected (huCBE11 100 μg given separately, day 28): 0.519
% T/C (huCBE11 100 μg, Day 41): 40.0%
Tumor Volume (huCBE11 100 μg, day 28): 386.1
Volume Decrease (huCBE11 100 μg, day 28): 417.1
Fa (fractional inhibition of tumor volume), group mean (huCBE11 100 μg, day 35): 0.645
Fa, individual animals (huCBE11 100 μg, day 35): 0.762 and 0.814 and 0.781 and 0.739 and 0.750 and 0.344 and 0.593 and 0.696 and 0.119 and 0.848
Tumor Volume, group mean (huCBE11 100 μg, day 35): 399.5
Tumor volume, individual animals (huCBE11 100 μg, day 35): 267.9 and 208.9 and 245.8 and 293.4 and 281.4 and 737.5 and 457.4 and 341.5 and 990.1 and 171.4
Volume Decrease vs control, group mean (huCBE11 100 μg, day 35): 724.5
Activity by NCI criteria (% T/C of 42 or less) (huCBE11 100 μg, gemcitabine parallel study): active
% T/C (huCBE11 500 μg and 50 μg groups, days 35 or 38 to 42): < 42%
% T/C (huCBE11 500 μg and 100 μg groups, days 32 to 42): < 42%
Activity by NCI criteria (huCBE11 500 μg, 100 μg, 50 μg, adriamycin parallel study): active
% T/C (huCBE11 500 μg, Days 31 to 45): below 42%
Fa (Fraction Affected), group mean (huCBE11 500 μg, day 21): 0.418
Tumor Volume, group mean (huCBE11 500 μg, day 21): 252.5
Volume Decrease vs control, group mean (huCBE11 500 μg, day 21): 181.5
Fa (fractional inhibition of tumor volume), group mean (huCBE11 500 μg, day 35): 0.648
Fa, individual animals (huCBE11 500 μg, day 35): 1.000 and 0.750 and 0.305 and 0.758 and 0.522 and 0.756 and 0.672 and 0.670 and 0.307 and 0.736
Tumor Volume, group mean (huCBE11 500 μg, day 35): 396.0
Tumor volume, individual animals (huCBE11 500 μg, day 35): 0.1 and 280.9 and 781.0 and 272.3 and 537.5 and 273.7 and 368.7 and 370.6 and 778.7 and 296.8
Volume Decrease vs control, group mean (huCBE11 500 μg, day 35): 728.0
Fa (fractional inhibition of tumor volume), group mean (huCBE11 500 μg, day 44): 0.567
Fa, individual animals (huCBE11 500 μg, day 44): 0.930 and 0.334 and 0.624 and 0.765 and 0.669 and 0.538 and 0.285 and 0.489 and 0.488 and 0.545
Tumor Volume, group mean (huCBE11 500 μg, day 44): 614.7
Tumor volume, individual animals (huCBE11 500 μg, day 44): 99.1 and 944.8 and 534.1 and 333.2 and 469.4 and 655.8 and 1014.0 and 725.3 and 726.2 and 645.6
Volume Decrease vs control, group mean (huCBE11 500 μg, day 44): 803.9
Activity by NCI criteria (% T/C of 42 or less) (huCBE11, Camptosar parallel study): active
Median Effect Dose (huCBE11 combined with Camptosar (0.555:1), day 21): 10.2 µg
Median Effect Dose (huCBE11 combined with Gemcitabine (0.568:1), day 28): 7.3 µg
Median Effect Dose (huCBE11 given separately, day 21): 2933 µg
Median Effect Dose (huCBE11 given separately, day 28): 81.1 µg

Nc1ccn([C@@H]2O[C@H](CO)[C@@H](O)C2(F)F)c(=O)n1 [Gemcitabine, gemcitabine, reference compound]
Fractional Inhibition of Tumor Volume (Fa), Ave. (Gem 12.5 mg/kg, day 28): 0.403
Tumor Volume, Ave. (Gem 12.5 mg/kg, day 28): 479.5
Individual Fractional Inhibition of Tumor Volume (Fa) [6]: 0.571 and 0.001 and 0.524 and 0.490 and 0.427 and 0.479 and 0.421 and 0.632 and −0.058 and 0.543
Individual Tumor Volumes [6]: 344.8 and 802.2 and 382.6 and 409.5 and 459.9 and 418.6 and 465.3 and 295.5 and 849.7 and 367.1
Fractional Inhibition of Tumor Volume (Fa), Ave. (Gem 25 mg/kg, day 28): 0.603
Tumor Volume, Ave. (Gem 25 mg/kg, day 28): 319.0
Individual Fractional Inhibition of Tumor Volume (Fa) [7]: 0.678 and 0.561 and 0.657 and 0.440 and 0.505 and 0.574 and 0.712 and 0.703 and 0.559 and 0.641
Individual Tumor Volumes [7]: 258.5 and 352.8 and 275.7 and 450.0 and 397.8 and 342.6 and 230.9 and 238.8 and 354.3 and 288.2
Fractional Inhibition of Tumor Volume (Fa), Ave. (Gem 50 mg/kg, day 28): 0.594
Tumor Volume, Ave. (Gem 50 mg/kg, day 28): 326.0
Individual Fractional Inhibition of Tumor Volume (Fa) [8]: 0.602 and 0.812 and 0.747 and 0.502 and 0.445 and 0.538 and 0.447 and 0.774 and 0.659 and 0.417
Individual Tumor Volumes [8]: 319.6 and 151.2 and 203.1 and 400.1 and 446.1 and 370.9 and 444.1 and 181.8 and 274.1 and 468.6
Fraction Affected (Gemcitabine 12.5 mg/kg given separately, day 28): 0.403
Tumor Volume (Gemcitabine 12.5 mg/kg, day 28): 479.5
Volume Decrease (Gemcitabine 12.5 mg/kg, day 28): 323.7
Fraction Affected (Gemcitabine 25 mg/kg given separately, day 28): 0.603
Tumor Volume (Gemcitabine 25 mg/kg, day 28): 318.9
Volume Decrease (Gemcitabine 25 mg/kg, day 28): 484.3
Tumor Volume (Gemcitabine 50 mg/kg, day 28): 326.0
Volume Decrease (Gemcitabine 50 mg/kg, day 28): 477.2
Median Effect Dose (Gemcitabine combined with huCBE11 (0.568:1), day 28): 4.2 mg/kg
Median Effect Dose (Gemcitabine given separately, day 28): 16.7 mg/kg
Inhibition of tumor growth vs vehicle control (gemcitabine 12.5 mg/kg, Day 41, separate study): No significant inhibition
% T/C (gemcitabine 25 mg/kg, Days 21 and 28): below 42%
Activity by NCI criteria (% T/C of 42 or less) (gemcitabine 50 mg/kg to […], Day 41): inactive
% T/C (gemcitabine 50 mg/kg, Days 17 to 28): below 42%
